Data reported in publication PMC8037182, “Solvothermal Synthesis of Multiple Dihydropyrimidinones at a Time as Inhibitors of Eg5” (Molecules, 2021).

Tested on: Caco-2 cell line
Assay: Cytotoxicity MTS assay, Caco-2 cell line
Type: cell-based
Conditions: for OD490 Mean / OD490 Well 1 / OD490 Well 2 / OD490 Well 3: Caco-2 cell line; for IC50: MTS assay, 24 h exposure
Method: The positive compounds (IC50 < 100 μM) obtained from the primary Eg5 motor protein ATPase assay were tested for antiproliferative activity in vitro against Caco-2 cell line, Hela cell line, L929 cell line and T24 cell line by performing MTS assay. Cells were introduced into 96-well plates at a density of 1000 cells per well. After 24 h incubation, the cells were exposed with compounds at final concentrations ranging from 0.5 to 100 µM for 24 h. DMSO was used at a final concentration of 0.025% as blank control, monastrol was used as the positive control. Then 20 µL (CellTiter 96® AQueous One Solution Promega, Madison, WI, USA) reagent was added in each well. After 2 h at 37 °C in a 80% humidified, 5% CO2 atmosphere, the absorbance at 490 nm was recorded using a microplate reader (BIO-RAD iMark^TM). The results were obtained in three independent duplicate experiments. The primary data were shown in Supplementary Materials Tables S4–S7. The IC50 values for these compounds were calculated from a non-linear regression graph plotted between the percentage of cell viability and concentration with SPSS17.0 software.

SMILES: CCOC(=O)c1c(C2NC(=O)NC(C)=C2C(=O)Nc2ccccc2C)[nH]c(C(=O)OC)c1C (centres unmarked) [D2]
- OD490 Mean (0.5μM, first assay): 0.6270
- OD490 Well 1 (0.5μM, first assay): 0.5887
- OD490 Well 2 (0.5μM, first assay): 0.6362
- OD490 Well 3 (0.5μM, first assay): 0.6562
- OD490 Mean (0.5μM, second assay): 0.7070
- OD490 Well 1 (0.5μM, second assay): 0.7084
- OD490 Well 2 (0.5μM, second assay): 0.7002
- OD490 Well 3 (0.5μM, second assay): 0.7123
- OD490 Mean (0.5μM, third assay): 0.6851
- OD490 Well 1 (0.5μM, third assay): 0.4885
- OD490 Well 2 (0.5μM, third assay): 0.8254
- OD490 Well 3 (0.5μM, third assay): 0.7414
- OD490 Mean (1μM, first assay): 0.6349
- OD490 Well 1 (1μM, first assay): 0.5288
- OD490 Well 2 (1μM, first assay): 0.6946
- OD490 Well 3 (1μM, first assay): 0.6813
- OD490 Mean (1μM, second assay): 0.7459
- OD490 Well 1 (1μM, second assay): 0.7813
- OD490 Well 2 (1μM, second assay): 0.6848
- OD490 Well 3 (1μM, second assay): 0.7716
- OD490 Mean (1μM, third assay): 0.6746
- OD490 Well 1 (1μM, third assay): 0.6245
- OD490 Well 2 (1μM, third assay): 0.7010
- OD490 Well 3 (1μM, third assay): 0.6982
- OD490 Mean (10μM, first assay): 0.6116
- OD490 Well 1 (10μM, first assay): 0.5314
- OD490 Well 2 (10μM, first assay): 0.6140
- OD490 Well 3 (10μM, first assay): 0.6893
- OD490 Mean (10μM, second assay): 0.7407
- OD490 Well 1 (10μM, second assay): 0.7116
- OD490 Well 2 (10μM, second assay): 0.7395
- OD490 Well 3 (10μM, second assay): 0.771
- OD490 Mean (10μM, third assay): 0.6639
- OD490 Well 1 (10μM, third assay): 0.7421
- OD490 Well 2 (10μM, third assay): 0.5621
- OD490 Well 3 (10μM, third assay): 0.6874
- OD490 Mean (25μM, first assay): 0.6114
- OD490 Well 1 (25μM, first assay): 0.5587
- OD490 Well 2 (25μM, first assay): 0.6570
- OD490 Well 3 (25μM, first assay): 0.6185
- OD490 Mean (25μM, second assay): 0.6775
- OD490 Well 1 (25μM, second assay): 0.5825
- OD490 Well 2 (25μM, second assay): 0.7137
- OD490 Well 3 (25μM, second assay): 0.7364
- OD490 Mean (25μM, third assay): 0.6183
- OD490 Well 1 (25μM, third assay): 0.6214
- OD490 Well 2 (25μM, third assay): 0.6325
- OD490 Well 3 (25μM, third assay): 0.6010
- OD490 Mean (50μM, first assay): 0.5907
- OD490 Well 1 (50μM, first assay): 0.6013
- OD490 Well 2 (50μM, first assay): 0.6084
- OD490 Well 3 (50μM, first assay): 0.5625
- OD490 Mean (50μM, second assay): 0.5350
- OD490 Well 1 (50μM, second assay): 0.5688
- OD490 Well 2 (50μM, second assay): 0.5038
- OD490 Well 3 (50μM, second assay): 0.5324
- OD490 Mean (50μM, third assay): 0.5761
- OD490 Well 1 (50μM, third assay): 0.6025
- OD490 Well 2 (50μM, third assay): 0.5936
- OD490 Well 3 (50μM, third assay): 0.5321
- OD490 Mean (100μM, first assay): 0.4815
- OD490 Well 1 (100μM, first assay): 0.4762
- OD490 Well 2 (100μM, first assay): 0.4852
- OD490 Well 3 (100μM, first assay): 0.4831
- OD490 Mean (100μM, second assay): 0.5288
- OD490 Well 1 (100μM, second assay): 0.5278
- OD490 Well 2 (100μM, second assay): 0.5253
- OD490 Well 3 (100μM, second assay): 0.5332
- OD490 Mean (100μM, third assay): 0.5185
- OD490 Well 1 (100μM, third assay): 0.5637
- OD490 Well 2 (100μM, third assay): 0.4985
- OD490 Well 3 (100μM, third assay): 0.4932
- IC50: 116 µM

SMILES: CCOC(=O)c1[nH]c(C2NC(=O)NC(C)=C2C(=O)Nc2ccc(Cl)cc2)c(C(=O)OCC)c1C (centres unmarked) [D7]
- OD490 Mean (0.5μM, first assay): 0.5690
- OD490 Well 1 (0.5μM, first assay): 0.5534
- OD490 Well 2 (0.5μM, first assay): 0.6352
- OD490 Well 3 (0.5μM, first assay): 0.5185
- OD490 Mean (0.5μM, second assay): 0.6172
- OD490 Well 1 (0.5μM, second assay): 0.6374
- OD490 Well 2 (0.5μM, second assay): 0.6303
- OD490 Well 3 (0.5μM, second assay): 0.5839
- OD490 Mean (0.5μM, third assay): 0.5837
- OD490 Well 1 (0.5μM, third assay): 0.6634
- OD490 Well 2 (0.5μM, third assay): 0.5231
- OD490 Well 3 (0.5μM, third assay): 0.5647
- OD490 Mean (1μM, first assay): 0.5311
- OD490 Well 1 (1μM, first assay): 0.5419
- OD490 Well 2 (1μM, first assay): 0.5318
- OD490 Well 3 (1μM, first assay): 0.5197
- OD490 Mean (1μM, second assay): 0.5625
- OD490 Well 1 (1μM, second assay): 0.5454
- OD490 Well 2 (1μM, second assay): 0.5593
- OD490 Well 3 (1μM, second assay): 0.5827
- OD490 Mean (1μM, third assay): 0.5540
- OD490 Well 1 (1μM, third assay): 0.5665
- OD490 Well 2 (1μM, third assay): 0.5741
- OD490 Well 3 (1μM, third assay): 0.5214
- OD490 Mean (10μM, first assay): 0.5404
- OD490 Well 1 (10μM, first assay): 0.5519
- OD490 Well 2 (10μM, first assay): 0.5485
- OD490 Well 3 (10μM, first assay): 0.5208
- OD490 Mean (10μM, second assay): 0.5334
- OD490 Well 1 (10μM, second assay): 0.5402
- OD490 Well 2 (10μM, second assay): 0.5543
- OD490 Well 3 (10μM, second assay): 0.5057
- OD490 Mean (10μM, third assay): 0.5421
- OD490 Well 1 (10μM, third assay): 0.5552
- OD490 Well 2 (10μM, third assay): 0.5101
- OD490 Well 3 (10μM, third assay): 0.5610
- OD490 Mean (25μM, first assay): 0.5145
- OD490 Well 1 (25μM, first assay): 0.5041
- OD490 Well 2 (25μM, first assay): 0.5114
- OD490 Well 3 (25μM, first assay): 0.5279
- OD490 Mean (25μM, second assay): 0.5117
- OD490 Well 1 (25μM, second assay): 0.548
- OD490 Well 2 (25μM, second assay): 0.4698
- OD490 Well 3 (25μM, second assay): 0.5172
- OD490 Mean (25μM, third assay): 0.5181
- OD490 Well 1 (25μM, third assay): 0.5221
- OD490 Well 2 (25μM, third assay): 0.5321
- OD490 Well 3 (25μM, third assay): 0.5000
- OD490 Mean (50μM, first assay): 0.4389
- OD490 Well 1 (50μM, first assay): 0.5283
- OD490 Well 2 (50μM, first assay): 0.4168
- OD490 Well 3 (50μM, first assay): 0.3716
- OD490 Mean (50μM, second assay): 0.4826
- OD490 Well 1 (50μM, second assay): 0.5209
- OD490 Well 2 (50μM, second assay): 0.4937
- OD490 Well 3 (50μM, second assay): 0.4332
- OD490 Mean (50μM, third assay): 0.4437
- OD490 Well 1 (50μM, third assay): 0.5112
- OD490 Well 2 (50μM, third assay): 0.4213
- OD490 Well 3 (50μM, third assay): 0.3987
- OD490 Mean (100μM, first assay): 0.3891
- OD490 Well 1 (100μM, first assay): 0.3713
- OD490 Well 2 (100μM, first assay): 0.3955
- OD490 Well 3 (100μM, first assay): 0.4006
- OD490 Mean (100μM, second assay): 0.4527
- OD490 Well 1 (100μM, second assay): 0.4755
- OD490 Well 2 (100μM, second assay): 0.4428
- OD490 Well 3 (100μM, second assay): 0.4398
- OD490 Mean (100μM, third assay): 0.3973
- OD490 Well 1 (100μM, third assay): 0.4012
- OD490 Well 2 (100μM, third assay): 0.4123
- OD490 Well 3 (100μM, third assay): 0.3785
- IC50: 81.9 µM
